The text below walks through data of ChEMBL document CHEMBL4739717, “Methods of treating cartilage disorders through inhibition of clk and dyrk” (2020).

As usually defined, the EC50 is the midpoint of the concentration-response curve. A word on the Emax: it is the greatest response seen or fitted, relative to the assay's reference.

Experiment [1] addresses Dual specificity tyrosine-phosphorylation-regulated kinase 1A (Homo sapiens, UniProt Q13627). Briefly: Inhibition of recombinant DYRK1A (unknown origin) using Ser/Thr 18 peptide as substrate incubated for 1 hr in presence of ATP by FRET assay.
The nature of experiment [2]: Induction of chondrogenesis in human MSC assessed as incubated for 6 days by rhodamine B and Nile red staining based imaging analysis. Type of experiment: functional. As to conditions: bmmsc.
A short description of experiment [3]: Effect on Wnt signaling pathway in human SW480 cells harbouring TCF/LEF luciferase reporter gene and SP5-Luc reporter gene incubated for 36 to 48 hrs by luminescence assay. Type of experiment: cell-based. A general note: In a reporter assay the amount or activity of a reporter protein is the signal.
Experiment [4] in a line: Induction of chondrogenesis in human MSC assessed as maximum activity at 10 nM incubated for 6 days by rhodamine B and Nile red staining based imaging analysis relative to control. Type of experiment: functional. As to conditions: BMMSC, 144 h, time 6 day.

Structures are written as SMILES. Bounds are passed on as bounds.

Consider `CN1CCN(c2cncc3[nH]c(-c4n[nH]c5ccc(-c6cncc(N)c6)nc45)nc23)CC1`, for which the values for the EC50 in experiment [1], in experiment [2] and in experiment [3] were 0.009 µM, 0.03 µM and over 10 µM, respectively. Besides, in experiment [4], the Emax at 0.01 µM is 64.6%.

As for `CS(=O)(=O)NCc1cc(F)cc(-c2nccc3[nH]c(-c4n[nH]c5ccc(-c6cncc(NC(=O)Cc7ccccc7)c6)nc45)cc23)c1`, the EC50 is 0.1 µM in experiment [1], 0.01 µM in experiment [2] and over 10 µM in experiment [3]. Besides, in experiment [4], the Emax at 0.01 µM amounted to 110%.

As for `CC(C)Nc1cncc(-c2cnc3[nH]nc(-c4cc5c(-c6ccccc6F)nccc5[nH]4)c3c2)c1`, the EC50 in experiment [1] is 0.044 µM; in experiment [2] it was 0.01 µM; in experiment [3] it was 0.435 µM. In addition, the Emax at 0.01 µM in experiment [4] came out at 75.8%.

With `CCCCC(=O)Nc1cncc(-c2ccc3[nH]nc(-c4nc5c(-c6ccoc6)cncc5[nH]4)c3n2)c1`, the EC50 is 0.092 µM in experiment [1], 0.01 µM in experiment [2] and over 10 µM in experiment [3]. The Emax at 0.01 µM in experiment [4] is 73.6%.

In the case of `CN(C)c1cncc(-c2ccc3[nH]nc(-c4nc5c(-c6cccs6)cncc5[nH]4)c3n2)c1`, the EC50 in experiment [1] was 0.034 µM; in experiment [2] it was 0.01 µM; in experiment [3] it was 0.71 µM. In addition, the Emax at 0.01 µM in experiment [4] worked out at 65.6%.

Consider `CCNCc1cncc(-c2cnc3[nH]nc(-c4cc5c(-c6cccnc6)ccnc5[nH]4)c3c2)c1`, for which the EC50 in experiment [1] is 0.026 µM; in experiment [2] it was 0.01 µM; in experiment [3] it was over 10 µM. The maximum response (Emax) at 0.01 µM in experiment [4] worked out at 91.8%.

Take `O=C(CC1CCNCC1)Nc1cncc(-c2ccc3[nH]nc(-c4cc5c(-c6ccoc6)ccnc5[nH]4)c3n2)c1`: the 50% effective concentration (EC50) in experiment [1] was 0.064 µM; in experiment [2], 0.01 µM; in experiment [3], over 10 µM. In addition, the Emax at 0.01 µM in experiment [4] is 102%.

Regarding `CS(=O)(=O)NCc1cc(F)cc(-c2nccc3[nH]c(-c4n[nH]c5ccc(-c6cncc(CN7CCCCC7)c6)nc45)cc23)c1`, the EC50 amounted to 0.068 µM in experiment [1], 0.01 µM in experiment [2] and 1.1 µM in experiment [3]. The Emax at 0.01 µM in experiment [4] was 50.1%.

With `COc1cccc(-c2nccc3[nH]c(-c4n[nH]c5ccc(-c6cccnc6)nc45)nc23)c1`, the results for the EC50 in experiment [1], in experiment [2] and in experiment [3] were 0.026 µM, 0.03 µM and 0.377 µM, respectively. Moreover, the Emax at 0.01 µM in experiment [4] came out at 50.6%.

With `COc1cncc(C(=O)Nc2c[nH]nc2C(=O)Nc2ccc(OCCN3CCCC3)nc2)c1`, the half-maximal effective concentration (EC50) in experiment [1] was found to be 0.012 µM; in experiment [2] it was 0.01 µM; in experiment [3] it was 0.0223 µM. Also, the Emax at 0.01 µM in experiment [4] is 106%.

Turning to `CCC(=O)Nc1cncc(-c2cnc3[nH]nc(-c4cc5c(-c6cccnc6)cccc5[nH]4)c3c2)c1`, the EC50 is 0.013 µM in experiment [1], 0.01 µM in experiment [2] and 0.18 µM in experiment [3]. For the same compound, the Emax at 0.01 µM in experiment [4] was 671%.

`CS(=O)(=O)NCc1cc(F)cc(-c2cncc3[nH]c(-c4n[nH]c5ccc(-c6cncc(NC(=O)C7CC7)c6)nc45)cc23)c1`: the EC50 is 0.053 µM in experiment [1], 0.01 µM in experiment [2] and 1.3 µM in experiment [3]. Besides, the Emax at 0.01 µM in experiment [4] turned out to be 82.9%.

For `c1cncc(-c2ccc3[nH]nc(-c4nc5c(-c6cccnc6)cccc5[nH]4)c3n2)c1`, the values for the EC50 in experiment [1], in experiment [2] and in experiment [3] were 0.053 µM, 0.03 µM and 1.12 µM, respectively. Besides, the Emax at 0.01 µM in experiment [4] is 57.8%.

Regarding `Fc1ccccc1-c1nccc2[nH]c(-c3n[nH]c4cnc(-c5cncc(CN6CCCC6)c5)cc34)cc12`, the EC50 in experiment [1] amounted to 0.041 µM; in experiment [2] it was 0.01 µM; in experiment [3], 1.98 µM. Besides, the Emax at 0.01 µM in experiment [4] was 69.4%.

Turning to `CC(C)C(=O)Nc1cncc(-c2cc3c(-c4cc5c(-c6cc(F)cc(CNS(C)(=O)=O)c6)nccc5[nH]4)n[nH]c3cn2)c1`, the EC50 in experiment [1] was 0.027 µM; in experiment [2], 0.03 µM; in experiment [3], over 10 µM. Besides, in experiment [4], the Emax at 0.01 µM is 79.5%.

Regarding `CCCC(=O)Nc1cncc(-c2cc3c(-c4cc5c(-c6cc(F)cc(NCCN(C)C)c6)ccnc5[nH]4)n[nH]c3cn2)c1`, the EC50 in experiment [1] was 0.039 µM; in experiment [2], 0.01 µM; in experiment [3], over 10 µM. Also, the Emax at 0.01 µM in experiment [4] was 162%.

Regarding `CN1CCN(c2nccc3[nH]c(-c4n[nH]c5cnc(-c6cncc(N)c6)cc45)cc23)CC1`, the 50% effective concentration (EC50) was 0.016 µM in experiment [1] and over 10 µM in experiment [3]. In addition, the Emax at 0.01 µM in experiment [4] came out at 49.8%.

Take `FC1(F)CCN(Cc2cncc(-c3cc4c(-c5cc6cccnc6[nH]5)n[nH]c4cn3)c2)C1`: the EC50 in experiment [1] came to 0.012 µM; in experiment [3], 1.35 µM. Besides, the Emax at 0.01 µM in experiment [4] was 45.3%.

In the case of `CC(C)C(=O)Nc1cncc(-c2cc3c(-c4cc5c(N6CCN(C)CC6)cccc5[nH]4)n[nH]c3cn2)c1`, the EC50 in experiment [1] is 0.026 µM; in experiment [3] it was 0.7 µM. In addition, in experiment [4], the Emax at 0.01 µM amounted to 36.4%.

For the compound `CCCC(=O)Nc1cncc(-c2cnc3[nH]nc(-c4cc5c(-c6cc(F)cc(CNS(C)(=O)=O)c6)cncc5[nH]4)c3c2)c1`, the half-maximal effective concentration (EC50) in experiment [1] was 0.014 µM; in experiment [3] it was 1.68 µM. The maximum response (Emax) at 0.01 µM in experiment [4] came to 36.7%.

With `CN(C)Cc1cncc(-c2ccc3[nH]nc(-c4cc5cccnc5[nH]4)c3n2)c1`, the half-maximal effective concentration (EC50) in experiment [1] was 0.042 µM; in experiment [3], over 10 µM. In addition, in experiment [4], the Emax at 0.01 µM amounted to 37%.

As to `O=C(Nc1cncc(-c2ccc3[nH]nc(-c4cc5c(-c6cccnc6)cncc5[nH]4)c3c2)c1)C1CCCC1`, the EC50 in experiment [1] worked out at 0.024 µM; in experiment [3], 1.35 µM. For the same compound, the Emax at 0.01 µM in experiment [4] worked out at 45.5%.

`O=C(Nc1cncc(-c2ccc3[nH]nc(-c4cc5c(-c6ccccc6F)nccc5[nH]4)c3n2)c1)C1CC1`: the EC50 was 0.046 µM in experiment [1] and 0.642 µM in experiment [3]. Further, the Emax at 0.01 µM in experiment [4] was 24.8%.

`CN1CCN(c2ccnc3[nH]c(-c4n[nH]c5ccc(-c6cncc(N)c6)nc45)nc23)CC1`: the concentration giving a half-maximal response (EC50) was 0.093 µM in experiment [1] and over 10 µM in experiment [3]. Further, in experiment [4], the Emax at 0.01 µM is 46.9%.

In the case of `CC(C)Nc1cncc(-c2ccc3[nH]nc(-c4nc5c(-c6ccccc6F)cncc5[nH]4)c3c2)c1`, the EC50 came to 0.036 µM in experiment [1] and 0.001 µM in experiment [3]. Besides, the Emax at 0.01 µM in experiment [4] was found to be 56.8%.

For the compound `CC(C)CC(=O)Nc1cncc(-c2ccc3[nH]nc(-c4cc5c(N6CCN(C)CC6)ccnc5[nH]4)c3n2)c1`, the EC50 in experiment [1] was found to be 0.005 µM; in experiment [3], 3.45 µM. Also, in experiment [4], the Emax at 0.01 µM is 49.5%.

As to `CCCCC(=O)Nc1cncc(-c2ccc3[nH]nc(-c4cc5cccnc5[nH]4)c3c2)c1`, the EC50 is 0.017 µM in experiment [1] and 0.324 µM in experiment [3]. Also, the Emax at 0.01 µM in experiment [4] was 34.1%.

On to `CN(C)Cc1cncc(-c2ccc3[nH]nc(-c4cc5c(-c6cccnc6)cccc5[nH]4)c3n2)c1`, for which the EC50 came out at 0.082 µM in experiment [1] and 0.415 µM in experiment [3]. Besides, in experiment [4], the Emax at 0.01 µM was determined as 35.9%.

Take `CS(=O)(=O)NCc1cc(F)cc(-c2cncc3[nH]c(-c4n[nH]c5ncc(-c6cncc(CN7CCCCC7)c6)cc45)cc23)c1`: the EC50 in experiment [1] came out at 0.021 µM; in experiment [3], 1.85 µM. In experiment [4], the Emax at 0.01 µM was 22.7%.

For the compound `CC(C)CC(=O)Nc1cncc(-c2ccc3[nH]nc(-c4nc5c(-c6cccs6)cncc5[nH]4)c3c2)c1`, the half-maximal effective concentration (EC50) in experiment [1] amounted to 0.019 µM; in experiment [3], 0.0001 µM. Besides, in experiment [4], the Emax at 0.01 µM stood at 53.3%.

For `CCCCC(=O)Nc1cncc(-c2cc3c(-c4cc5cnccc5[nH]4)n[nH]c3cn2)c1`, the EC50 in experiment [1] was found to be 0.002 µM; in experiment [3], 3.57 µM. Besides, the Emax at 0.01 µM in experiment [4] amounted to 49.9%.
